Experimental data reported in patent US20260364024A1, “A SCALABLE AND CONTINUOUS METHOD TO PREPARE SOLID DRUG NANOPARTICLES FOR OCULAR DISEASE THERAPY” (The Curators of the University of Missouri, priority 2023, published 2026).
Where a name gives a salt, the structure may show the parent alone.

Legend:
[1] = eye drops, salt form; background statement; cited from earlier work
[2] = In vitro drug release by dialysis in PBS; format: physicochemical; details: from BT/BH solution; within 4 h, PBS pH 7.4, 37 °C, sink condition
Protocol: The tube was then immersed in 5 mL of PBS, and the set was incubated at 37 °C with shaking (100 rpm). At predetermined intervals, 100 μL of the release medium (PBS) was withdrawn and replaced with equal volume of fresh medium. […] These experiments were carried out in triplicate.
Because the BM/BX SDNs are composed of hydrophobic drugs, the release was expected to slow down in comparison to their hydrophilic counterparts BT and BH.

[3] = Ex vivo cornea permeation (Franz diffusion cell); format: in vitro ADME; details: from BT/BH solution, within 4 h, 37 °C, rabbit cornea
Protocol: After using dextran to confirm the intactness of cornea extracted from fresh rabbit eyes, that cornea was mounted between the donor chamber and receptor chamber of a Franz diffusion cell system. […] The set was incubated at 37 °C. At predetermined intervals up to 12 h, an aliquot of 100 μL was withdrawn from the receptor chamber and analyzed by LC-MS. An equal volume of fresh PBS was supplemented to the receptor chamber following each sampling. FITC-labeled Dextran was tested to confirm the intactness of the cornea, and the permeation of the FITC-labeled Dextran was quantified by measuring the fluorescence intensity of FITC (Emission: 525 nm, Excitation: 490 nm) using a microplate reader.

BH released [2]	Compound	bioavailability [1]	hydrophilic counterpart penetrated across the cornea [3]	BT released [2]
> 70%	CC(C)NCC(O)COc1ccc(CCOCC2CC2)cc1 (stereo not drawn) [BH, betaxolol hydrochloride]	less than 5%	less than 10%	–
–	Brc1c(NC2=NCCN2)ccc2nccnc12.O=C(O)C(O)C(O)C(=O)O [BT, brimonidine tartrate]	less than 5%	less than 10%	more than 60%
